Earlier results on 1 compound are cited in patent US7618976B2, “Methods for the production of sildenafil base and citrate salt” (Teva Pharmaceutical Industries Ltd, priority 2004, dated 2009).

This data set deals with isolated human corpus cavernosum.

Regarding `CCCc1nn(C)c2c(=O)[nH]c(-c3cc(S(=O)(=O)N4CCN(C)CC4)ccc3OCC)nc12` [Sildenafil], the “direct relaxant effect on isolated human corpus cavernosum” value is “no direct relaxant effect”.
